# In US20240124439A1, “Pyrido[2,3-D]Imidazole Derivatives and Their Use As Inhibitors of ITK for the Treatment of Skin Disease” (Pfizer Inc., priority 2020, published 2024):
# Columns and labels:
# [1] = test system: activated CD4+ human T-cells (IL-2); assay: IL-2 inhibition in supernatants from activated CD4+ human T-cells (cisbio HTRF); assay type: cell-based; settings: T-cell; CD3/CD28-activated CD4+ human T cells, ImmunoCult stimulation 20 to 24 hrs; geometric mean of count n
# Summary of the method: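 Primary human CD4+ T cells activated with CD3/CD28 for 3 days and expanded to 7-9 days total, plated at 30,000 cells/well. Cells preincubated 15 min with compound, then stimulated with ImmunoCult (1:50 final) for 20-24 h at 37° C. Supernatant IL-2 measured by HTRF (665/615 nm); IC50 from four-parameter logistic fit.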
# [2] = target: IL-2-Inducible T-Cell Kinase (ITK) (Homo sapiens (Human), UniProt Q08881); assay: ITK enzyme assay (IL-2-inducible T-cell kinase activity); assay type: biochemical; settings: geometric mean of count n
# Chain of IL-2-Inducible T-Cell Kinase (ITK) (Q08881 whole entry): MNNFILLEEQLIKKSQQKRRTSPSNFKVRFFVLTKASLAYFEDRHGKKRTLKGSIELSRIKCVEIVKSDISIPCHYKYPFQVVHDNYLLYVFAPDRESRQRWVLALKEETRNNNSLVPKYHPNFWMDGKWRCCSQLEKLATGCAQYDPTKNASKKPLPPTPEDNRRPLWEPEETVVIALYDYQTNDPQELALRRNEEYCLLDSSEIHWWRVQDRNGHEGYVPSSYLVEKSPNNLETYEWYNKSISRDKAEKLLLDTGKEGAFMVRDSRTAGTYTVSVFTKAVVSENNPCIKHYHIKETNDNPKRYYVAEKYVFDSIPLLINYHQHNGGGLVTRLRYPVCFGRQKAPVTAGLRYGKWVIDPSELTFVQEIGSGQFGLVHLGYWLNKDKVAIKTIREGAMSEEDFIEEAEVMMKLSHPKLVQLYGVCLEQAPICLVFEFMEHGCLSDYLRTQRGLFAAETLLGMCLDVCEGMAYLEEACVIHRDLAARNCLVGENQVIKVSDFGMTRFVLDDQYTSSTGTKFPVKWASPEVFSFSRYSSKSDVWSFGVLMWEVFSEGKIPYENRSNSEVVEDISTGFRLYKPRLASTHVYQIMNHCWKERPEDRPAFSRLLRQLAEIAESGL
# Summary of the method: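 Full-length N-Flag/C-His human ITK, pre-incubated 30 min at RT with compound. Reaction in HEPES pH 7.5 buffer with MgCl2, glutathione, gelatin and Brij-35, started with BTK peptide substrate, 60 min at RT. EDTA stop, PT66/APC TR-FRET detection overnight; IC50 fitted by four-parameter logistic.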
Compound,IC50 [1] [nM],IC50 [2] [nM]
"CN(C(=O)C1(F)CCCCC1)c1cnc2[nH]c(-c3n[nH]c4c3CCC(C)(C)C4)nc2c1 [Example 101, N-(2-(6,6-Dimethyl-4,5,6,7-tetrahydro-1H-indazol-3-yl)-3H-imidazo[4,5-b]pyridin-6-yl)-1-fluoro-N-methylcyclohexane-1-carboxamide]",464,48
"CC(C)CC(=O)N(C)c1cnc2[nH]c(-c3n[nH]c4c3CCC(C)(C)C4)nc2c1 [Example 102, N-(2-(6,6-Dimethyl-4,5,6,7-tetrahydro-1H-indazol-3-yl)-3H-imidazo[4,5-b]pyridin-6-yl)-N,3-dimethylbutanamide]",749,269
"C[C@H](C(=O)N(C)c1cnc2[nH]c(-c3n[nH]c4c3C[C@@H]3C[C@]3(C)C4)nc2c1)N1CCCCC1 [Example 117, (R)-N-Methyl-N-(2-((4aS,5aR)-5a-methyl-1,4,4a,5,5a,6-hexahydrocyclopropa[f]indazol-3-yl)-3H-imidazo[4,5-b]pyridin-6-yl)-2-(piperidin-1-yl)propanamide]",769,275
"CN(C(=O)C1CCOCC1)c1cnc2[nH]c(-c3n[nH]c4c3CCC(C)(C)C4)nc2c1 [Example 90, N-(2-(6,6-Dimethyl-4,5,6,7-tetrahydro-1H-indazol-3-yl)-3H-imidazo[4,5-b]pyridin-6-yl)-N-methyltetrahydro-2H-pyran-4-carboxamide]",892,545
"CN(C(=O)C(F)(F)C1CCOCC1)c1cnc2nc(-c3n[nH]c4c3CCC(C)(C)C4)[nH]c2c1 [Example 5, N-(2-(6,6-Dimethyl-4,5,6,7-tetrahydro-1H-indazol-3-yl)-1H-imidazo[4,5-b]pyridin-6-yl)-2,2-difluoro-N-methyl-2-(tetrahydro-2H-pyran-4-yl)acetamide]",375,14
"CC(C(=O)N(C)c1cnc2[nH]c(-c3n[nH]c4c3C[C@@H]3C[C@]3(C)C4)nc2c1)N1CCCCC1 (stereo partly drawn) [Example 120, N-Methyl-N-(2-((4aS,5aR)-5a-methyl-1,4,4a,5,5a,6-hexahydrocyclopropa[f]indazol-3-yl)-3H-imidazo[4,5-b]pyridin-6-yl)-2]",2340,788
"CN(C(=O)C1CCCC1)c1cnc2[nH]c(-c3n[nH]c4c3CCC(C)(C)C4)nc2c1 [Example 113, N-(2-(6,6-Dimethyl-4,5,6,7-tetrahydro-1H-indazol-3-yl)-3H-imidazo[4,5-b]pyridin-6-yl)-N-methylcyclopentanecarboxamide]",1620,350
"COCCOc1nc2[nH]c(-c3n[nH]c4c3C[C@@H]3C[C@]3(C)C4)nc2cc1N(C)C(=O)[C@@H](C)N1CCOCC1 [Example 39, (R)-N-(5-(2-Methoxyethoxy)-2-((4aS,5aR)-5a-methyl-1,4,4a,5,5a,6-hexahydrocyclopropa[f]indazol-3-yl)-3H-imidazo[4,5-b]pyridin-6-yl)-N-methyl-2-morpholinopropanamide]",461,110
"COc1nc2[nH]c(-c3n[nH]c4c3C[C@@H]3C[C@]3(C)C4)nc2cc1N(C)C(=O)CN1CCOCC1 [Example 35, N-(5-Methoxy-2-((4aS,5aR)-5a-methyl-1,4,4a,5,5a,6-hexahydrocyclopropa[f]indazol-3-yl)-3H-imidazo[4,5-b]pyridin-6-yl)-N-methyl-2-morpholinoacetamide]",462,143
"CCC1(C(=O)N(C)c2cnc3[nH]c(-c4n[nH]c5c4CCC(C)(C)C5)nc3c2)CCOCC1 [Example 94, N-(2-(6,6-Dimethyl-4,5,6,7-tetrahydro-1H-indazol-3-yl)-3H-imidazo[4,5-b]pyridin-6-yl)-4-ethyl-N-methyltetrahydro-2H-pyran-4-carboxamide]",3170,307
"C[C@@H](C(=O)N(C)c1cnc2[nH]c(-c3n[nH]c4c3C[C@@H]3C[C@]3(C)C4)nc2c1)N1CCCCC1 [Example 118, (S)-N-Methyl-N-(2-((4aS,5aR)-5a-methyl-1,4,4a,5,5a,6-hexahydrocyclopropa[f]indazol-3-yl)-3H-imidazo[4,5-b]pyridin-6-yl)-2-(piperidin-1-yl)propanamide]",727,243
"CC(C(=O)N(C)c1cnc2[nH]c(-c3n[nH]c4c3C[C@@H]3C[C@]3(C)C4)nc2c1)N1C2COCC1C2 (stereo partly drawn) [Example 119, 2-(3-Oxa-6-azabicyclo[3.1.1]heptan-6-yl)-N-methyl-N-(2-((4aS,5aR)-5a-methyl-1,4,4a,5,5a,6-hexahydrocyclopropa[f]indazol-3-yl)-3H-imidazo[4,5-b]pyridin-6-yl)propanamide]",4210,470
"CN(C(=O)C1(F)CCOCC1)c1cnc2[nH]c(-c3n[nH]c4c3CCC(C)(C)C4)nc2c1 [Example 98, N-(2-(6,6-Dimethyl-4,5,6,7-tetrahydro-1H-indazol-3-yl)-3H-imidazo[4,5-b]pyridin-6-yl)-4-fluoro-N-methyltetrahydro-2H-pyran-4-carboxamide]",1310,122
"CN(C(=O)C1C[C@@H]2[C@H](C1)C2(F)F)c1cnc2nc(-c3n[nH]c4c3C[C@@H]3C[C@]3(C)C4)[nH]c2c1 (stereo partly drawn) [Example 55, (1R,5S)-6,6-Difluoro-N-methyl-N-(2-((4aS,5aR)-5a-methyl-1,4,4a,5,5a,6-hexahydrocyclopropa[f]indazol-3-yl)-1H-imidazo[4,5-b]pyridin-6-yl)bicyclo[3.1.0]hexane-3-carboxamide]",93,20

# The remaining lines, values ahead:
IC50 [1] [nM],IC50 [2] [nM],Compound
279,117,"C[C@H](C(=O)N(C)c1cnc2nc(-c3n[nH]c4c3C[C@@H]3C[C@]3(C)C4)[nH]c2c1)n1cccn1 [Example 8, (R)-N-Methyl-N-(2-((4aS,5aR)-5a-methyl-1,4,4a,5,5a,6-hexahydrocyclopropa[f]indazol-3-yl)-1H-imidazo[4,5-b]pyridin-6-yl)-2-(1H-pyrazol-1-yl)propanamide]"
338,40,"CN(C(=O)C1(C2CCC2)CCC1)c1cnc2nc(-c3n[nH]c4c3C[C@@H]3C[C@]3(C)C4)[nH]c2c1 [Example 63, N-Methyl-N-(2-((4aS,5aR)-5a-methyl-1,4,4a,5,5a,6-hexahydrocyclopropa[f]indazol-3-yl)-1H-imidazo[4,5-b]pyridin-6-yl)-[1,1′-bi(cyclobutane)]-1-carboxamide]"
447,76,"CN(C(=O)[C@H](F)C1CCOCC1)c1cnc2nc(-c3n[nH]c4c3C[C@@H]3C[C@]3(C)C4)[nH]c2c1 [Example 12, (R)-2-Fluoro-N-methyl-N-(2-((4aS,5aR)-5a-methyl-1,4,4a,5,5a,6-hexahydrocyclopropa[f]indazol-3-yl)-1H-imidazo[4,5-b]pyridin-6-yl)-2-(tetrahydro-2H-pyran-4-yl)acetamide]"
1220,91,"CN(C(=O)C12CC(C1)C2)c1cnc2nc(-c3n[nH]c4c3C[C@@H]3C[C@]3(C)C4)[nH]c2c1 [Example 85, N-Methyl-N-(2-((4aS,5aR)-5a-methyl-1,4,4a,5,5a,6-hexahydrocyclopropa[f]indazol-3-yl)-1H-imidazo[4,5-b]pyridin-6-yl)bicyclo[1.1.1]pentane-1-carboxamide]"
182,63,"CN(C(=O)C(C)(C)C1CCOCC1)c1cnc2nc(-c3n[nH]c4c3CC3C[C@]3(C)C4)[nH]c2c1 (stereo partly drawn) [Example 60, N,2-Dimethyl-N-(2-((4aS,5aR)-5a-methyl-1,4,4a,5,5a,6-hexahydrocyclopropa[f]indazol-3-yl)-1H-imidazo[4,5-b]pyridin-6-yl)-2-(tetrahydro-2H-pyran-4-yl)propenamide]"
1160,292,"CN(C(=O)[C@H]1[C@@H]2COC[C@@H]21)c1cnc2nc(-c3n[nH]c4c3C[C@@H]3C[C@]3(C)C4)[nH]c2c1 [Example 69, (1R,5S,6r)-N-Methyl-N-(2-((4aS,5aR)-5a-methyl-1,4,4a,5,5a,6-hexahydrocyclopropa[f]indazol-3-yl)-1H-imidazo[4,5-b]pyridin-6-yl)-3-oxabicyclo[3.1.0]hexane-6-carboxamide]"
208,103,"CN(C(=O)[C@@H]1CCCCO1)c1cnc2nc(-c3n[nH]c4c3C[C@@H]3C[C@]3(C)C4)[nH]c2c1 [Example 64, (S)-N-Methyl-N-(2-((4aS,5aR)-5a-methyl-1,4,4a,5,5a,6-hexahydrocyclopropa[f]indazol-3-yl)-1H-imidazo[4,5-b]pyridin-6-yl)tetrahydro-2H-pyran-2-carboxamide]"
311,50,"CC(C)CCC(=O)N(C)c1cnc2nc(-c3n[nH]c4c3C[C@@H]3C[C@]3(C)C4)[nH]c2c1 [Example 74, N,4-Dimethyl-N-(2-((4aS,5aR)-5a-methyl-1,4,4a,5,5a,6-hexahydrocyclopropa[f]indazol-3-yl)-1H-imidazo[4,5-b]pyridin-6-yl)pentanamide]"
248,39,"CC(C)CC(=O)N(C)c1cnc2nc(-c3n[nH]c4c3C[C@@H]3C[C@]3(C)C4)[nH]c2c1 [Example 72, N,3-Dimethyl-N-(2-((4aS,5aR)-5a-methyl-1,4,4a,5,5a,6-hexahydrocyclopropa[f]indazol-3-yl)-1H-imidazo[4,5-b]pyridin-6-yl)butanamide]"
177,107,"CN(C(=O)[C@H]1CCCCO1)c1cnc2nc(-c3n[nH]c4c3C[C@@H]3C[C@]3(C)C4)[nH]c2c1 [Example 68, (R)-N-Methyl-N-(2-((4aS,5aR)-5a-methyl-1,4,4a,5,5a,6-hexahydrocyclopropa[f]indazol-3-yl)-1H-imidazo[4,5-b]pyridin-6-yl)tetrahydro-2H-pyran-2-carboxamide]"
